Test results: the NIST ThermoML archive (doi:10.1016/j.fluid.2019.05.003)

Experiment: xn = mol fraction of the nth substance listed
Settings: 101 kPa, Liquid; for viscosity: Falling or rolling sphere viscometry; for mass density: Vibrating tube method

CC[N+]1(C)CCOCC1.[Br-] [N-ethyl-N-methylmorpholinium bromide] + O
Settings | mass density [kg/m3] | viscosity [mPa·s]
298.15 K, x1 = 0.023 | 1062.6 | 1.197
298.15 K, x1 = 0.045 | 1111.8 | 1.56
298.15 K, x1 = 0.07 | 1156 | 2.228
298.15 K, x1 = 0.1 | 1197.3 | 3.5
298.15 K, x1 = 0.128 | 1227 | 5.195
298.15 K, x1 = 0.16 | 1254.9 | 8.371
298.15 K, x1 = 0.192 | 1278.3 | 13.81
298.15 K, x1 = 0.22 | 1295.2 | 22.13
298.15 K, x1 = 0.252 | 1311.3 | 37.25
303.15 K, x1 = 0.023 | 1060.7 | 1.06
303.15 K, x1 = 0.045 | 1109.6 | 1.391
303.15 K, x1 = 0.07 | 1153.6 | 1.983
303.15 K, x1 = 0.1 | 1194.6 | 3.126
303.15 K, x1 = 0.128 | 1224.2 | 4.423
303.15 K, x1 = 0.16 | 1252 | 7.156
303.15 K, x1 = 0.192 | 1275.3 | 11.53
303.15 K, x1 = 0.22 | 1292.1 | 18.2
303.15 K, x1 = 0.252 | 1308.2 | 29.81
308.15 K, x1 = 0.023 | 1058.6 | 0.961
308.15 K, x1 = 0.045 | 1107.3 | 1.254
308.15 K, x1 = 0.07 | 1151 | 1.778
308.15 K, x1 = 0.1 | 1191.8 | 2.816
308.15 K, x1 = 0.128 | 1221.3 | 3.944
308.15 K, x1 = 0.16 | 1249 | 6.192
308.15 K, x1 = 0.192 | 1272.3 | 9.829
308.15 K, x1 = 0.22 | 1289 | 15.03
308.15 K, x1 = 0.252 | 1305 | 24.22
313.15 K, x1 = 0.023 | 1056.3 | 0.876
313.15 K, x1 = 0.045 | 1104.8 | 1.136
313.15 K, x1 = 0.07 | 1148.3 | 1.566
313.15 K, x1 = 0.1 | 1189 | 2.543
313.15 K, x1 = 0.128 | 1218.4 | 3.485
313.15 K, x1 = 0.16 | 1246 | 5.438
313.15 K, x1 = 0.192 | 1269.2 | 8.443
313.15 K, x1 = 0.22 | 1285.9 | 12.5
313.15 K, x1 = 0.252 | 1301.9 | 19.81
318.15 K, x1 = 0.023 | 1053.7 | 0.805
318.15 K, x1 = 0.045 | 1102.2 | 1.037
318.15 K, x1 = 0.07 | 1145.6 | 1.45
318.15 K, x1 = 0.1 | 1186.1 | 2.291
318.15 K, x1 = 0.128 | 1215.4 | 3.1
318.15 K, x1 = 0.16 | 1243 | 4.738
318.15 K, x1 = 0.192 | 1266.1 | 7.253
318.15 K, x1 = 0.22 | 1282.8 | 10.46
318.15 K, x1 = 0.252 | 1298.7 | 16.49
323.15 K, x1 = 0.023 | 1051.7 | 0.756
323.15 K, x1 = 0.045 | 1099.6 | 0.953
323.15 K, x1 = 0.07 | 1142.8 | 1.328
323.15 K, x1 = 0.1 | 1183.2 | 2.098
323.15 K, x1 = 0.128 | 1212.4 | 2.776
323.15 K, x1 = 0.16 | 1239.9 | 4.235
323.15 K, x1 = 0.192 | 1263 | 6.32
323.15 K, x1 = 0.22 | 1279.7 | 8.952
323.15 K, x1 = 0.252 | 1295.6 | 13.88
328.15 K, x1 = 0.023 | 1049.5 | 0.717
328.15 K, x1 = 0.045 | 1097.1 | 0.879
328.15 K, x1 = 0.07 | 1139.8 | 1.22
328.15 K, x1 = 0.1 | 1180.2 | 1.908
328.15 K, x1 = 0.128 | 1209.4 | 2.493
328.15 K, x1 = 0.16 | 1236.8 | 3.696
328.15 K, x1 = 0.192 | 1259.9 | 5.528
328.15 K, x1 = 0.22 | 1276.5 | 7.778
328.15 K, x1 = 0.252 | 1292.4 | 11.84
333.15 K, x1 = 0.023 | 1047.3 | 0.638
333.15 K, x1 = 0.045 | 1094.6 | 0.813
333.15 K, x1 = 0.07 | 1137.3 | 1.123
333.15 K, x1 = 0.1 | 1177.3 | 1.748
333.15 K, x1 = 0.128 | 1206.3 | 2.263
333.15 K, x1 = 0.16 | 1233.7 | 3.324
333.15 K, x1 = 0.192 | 1256.7 | 4.903
333.15 K, x1 = 0.22 | 1273.3 | 6.702
333.15 K, x1 = 0.252 | 1289.2 | 10.27
338.15 K, x1 = 0.023 | 1045.1 | 0.624
338.15 K, x1 = 0.045 | 1092.1 | 0.764
338.15 K, x1 = 0.07 | 1134.6 | 1.051
338.15 K, x1 = 0.1 | 1174.6 | 1.626
338.15 K, x1 = 0.128 | 1203.2 | 2.058
338.15 K, x1 = 0.16 | 1230.5 | 2.988
338.15 K, x1 = 0.192 | 1253.5 | 4.274
338.15 K, x1 = 0.22 | 1270.1 | 5.649
338.15 K, x1 = 0.252 | 1286 | 8.914
343.15 K, x1 = 0.023 | 1042.8 | 0.579
343.15 K, x1 = 0.045 | 1089.6 | 0.716
343.15 K, x1 = 0.07 | 1131.9 | 0.97
343.15 K, x1 = 0.1 | 1171.7 | 1.49
343.15 K, x1 = 0.128 | 1200 | 1.882
343.15 K, x1 = 0.16 | 1227.3 | 2.726
343.15 K, x1 = 0.192 | 1250.3 | 3.874
343.15 K, x1 = 0.22 | 1266.9 | 5.218
343.15 K, x1 = 0.252 | 1282.7 | 7.822
348.15 K, x1 = 0.023 | 1040.6 | 0.551
348.15 K, x1 = 0.045 | 1087.2 | 0.675
348.15 K, x1 = 0.07 | 1129.2 | 0.901
348.15 K, x1 = 0.1 | 1168.8 | 1.357
348.15 K, x1 = 0.128 | 1196.7 | 1.733
348.15 K, x1 = 0.16 | 1224.1 | 2.517
348.15 K, x1 = 0.192 | 1247.1 | 3.514
348.15 K, x1 = 0.22 | 1263.6 | 4.632
348.15 K, x1 = 0.252 | 1279.5 | 6.907
